Results taken from PubChem BioAssay AID1671257.

Biological target: Tyrosine-protein kinase ABL2 (Homo sapiens) (UniProt P42684)
Assay: ABL2 kinase inhibition, dose response, biochemical, Z'-LYTE, FRET readout, direct format (AID 1671257)
Settings: Z'-LYTE FRET kinase assay, recombinant ABL2

Chain of Tyrosine-protein kinase ABL2 (Homo sapiens) (P42684 whole entry, looked up): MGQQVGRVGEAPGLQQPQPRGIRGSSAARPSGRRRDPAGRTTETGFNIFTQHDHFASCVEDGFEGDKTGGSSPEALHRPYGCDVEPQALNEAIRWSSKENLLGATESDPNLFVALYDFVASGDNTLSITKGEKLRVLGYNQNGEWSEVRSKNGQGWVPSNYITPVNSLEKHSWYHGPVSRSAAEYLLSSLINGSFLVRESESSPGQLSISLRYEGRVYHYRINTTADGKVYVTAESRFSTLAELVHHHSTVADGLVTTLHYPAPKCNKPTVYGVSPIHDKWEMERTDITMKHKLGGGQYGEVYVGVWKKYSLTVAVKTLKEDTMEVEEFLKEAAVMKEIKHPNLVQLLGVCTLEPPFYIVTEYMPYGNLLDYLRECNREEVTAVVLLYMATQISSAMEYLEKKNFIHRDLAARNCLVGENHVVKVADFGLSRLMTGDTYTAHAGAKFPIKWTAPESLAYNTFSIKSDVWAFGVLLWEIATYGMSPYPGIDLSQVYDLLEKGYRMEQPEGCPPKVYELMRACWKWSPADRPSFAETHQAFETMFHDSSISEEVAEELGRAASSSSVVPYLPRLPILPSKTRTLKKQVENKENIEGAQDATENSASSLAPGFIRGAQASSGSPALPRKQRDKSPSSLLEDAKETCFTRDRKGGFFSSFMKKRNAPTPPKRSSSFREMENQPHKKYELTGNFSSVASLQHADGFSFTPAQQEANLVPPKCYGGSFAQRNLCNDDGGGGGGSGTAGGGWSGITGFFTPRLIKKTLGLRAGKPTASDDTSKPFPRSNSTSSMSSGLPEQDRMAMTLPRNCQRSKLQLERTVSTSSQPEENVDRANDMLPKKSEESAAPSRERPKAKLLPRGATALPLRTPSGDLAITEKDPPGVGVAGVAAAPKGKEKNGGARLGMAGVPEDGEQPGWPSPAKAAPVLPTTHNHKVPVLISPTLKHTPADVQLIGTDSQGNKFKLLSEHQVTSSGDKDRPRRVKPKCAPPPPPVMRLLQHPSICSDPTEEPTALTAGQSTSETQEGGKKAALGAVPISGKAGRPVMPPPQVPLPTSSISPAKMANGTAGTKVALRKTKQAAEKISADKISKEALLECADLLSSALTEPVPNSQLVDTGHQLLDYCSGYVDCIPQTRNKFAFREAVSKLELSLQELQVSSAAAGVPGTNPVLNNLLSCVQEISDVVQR

For `COc1cc2ncnc(Nc3cccc(Cl)c3)c2cc1OC`, the IC50 was 1.05 µM.
